One assay addresses T1, MMP-8 (Homo sapiens, UniProt P22894).
T1 construct: catalytic domain (Met80-Gly242) of human neutrophil collagenase; made in house
As to the kind of experiment: MMP inhibition enzyme assay (initial reaction rate, standard substrate DNP-Pro-Leu-Gly-Leu-Trp-Ala-D-Arg-NH2). The assay is classed as biochemical. As to conditions: 8 nM catalytic domain (Met80-Gly242) of human neutrophil collagenase; 10 microM substrate; pH 7.6; read-out: MMP-8 Inhib. [%] IC50. As to the method:
(§1) In order to determine the inhibition of MMPs, for example MMP-8, the catalytic domain (isolation and purification see for example Schnierer, S., Kleine, T., Gote, T., Hillemann, A., Knäuper, V., Tschesche, H.,Biochem. Biophys. Res. Commun. (1993) 191, 319-326) is incubated with inhibitors having various concentrations. Subsequently, the initial reaction rate in the conversion of a standard substrate is measured in a manner analogous to Grams F. et al., FEBS 335 (1993) 76-80). Alternatively the percent inhibition will be determined at a distant inhibitor concentration.
(§2) The assays for other MMPs are performed in a analogous manner. • Assay buffer: 50 mM Tris/HCI pH 7.6 (Tris= Tris-(hydroxymethyl)-aminomethan) 100 mM NaCl/10 mM CaCl2-/5% MeOH (if necessary) • Enzyme: 8 nM catalytic domain (Met80-Gly242) of human neutrophil collagenase • Substrate: 10 microM DNP-Pro-Leu-Gly-Leu-Trp-Ala-D-Arg-NH2 • Total assay volume: 1 ml

For a further assay, the target named is MMP-9 (Homo sapiens, UniProt P14780). As to the kind of experiment: MMP inhibition enzyme assay, performed in an analogous manner to MMP-8. The assay is classed as biochemical. As to conditions: compound concentration 0.21 µM (100 ng/ml); read-out: MMP-9 Inhib. [%]. On the procedure:
as §1, §2

Usually IC50 stands for the concentration that gives 50% inhibition.

T1 sequence (P22894 100-262 limits assumed): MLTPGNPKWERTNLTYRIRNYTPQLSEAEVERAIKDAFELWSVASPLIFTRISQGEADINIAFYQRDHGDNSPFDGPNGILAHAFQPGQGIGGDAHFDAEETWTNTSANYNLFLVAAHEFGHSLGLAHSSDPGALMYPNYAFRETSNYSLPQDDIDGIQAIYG
Chain of MMP-9 (P14780 94-707, species assumed): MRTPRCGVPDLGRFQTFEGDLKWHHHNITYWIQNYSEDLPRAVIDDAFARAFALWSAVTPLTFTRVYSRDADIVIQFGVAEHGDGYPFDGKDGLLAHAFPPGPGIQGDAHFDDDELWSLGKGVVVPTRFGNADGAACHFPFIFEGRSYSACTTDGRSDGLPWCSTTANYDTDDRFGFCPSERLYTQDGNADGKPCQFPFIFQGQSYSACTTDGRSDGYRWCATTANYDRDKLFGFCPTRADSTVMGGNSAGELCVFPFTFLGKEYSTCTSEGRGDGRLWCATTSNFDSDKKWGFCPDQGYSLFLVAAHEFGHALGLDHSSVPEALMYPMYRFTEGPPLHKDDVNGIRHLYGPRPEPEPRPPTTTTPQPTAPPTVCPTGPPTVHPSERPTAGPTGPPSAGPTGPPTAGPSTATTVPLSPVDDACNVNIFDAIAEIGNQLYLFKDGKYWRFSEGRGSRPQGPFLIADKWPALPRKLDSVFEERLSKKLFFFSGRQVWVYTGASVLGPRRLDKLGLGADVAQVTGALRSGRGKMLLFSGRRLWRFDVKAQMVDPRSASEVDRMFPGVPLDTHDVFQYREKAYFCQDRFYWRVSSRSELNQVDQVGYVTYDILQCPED

Regarding `O=C(O)[C@H](CSCc1ccccc1)NS(=O)(=O)c1ccc(-c2ccc(Cl)cc2)cc1` [Example 1, N-(p-Chloro-biphenylsulfonyl)-S-benzyl-cysteine], the IC50 on MMP-8 stood at 21.6 nM. Regarding `O=C(C[C@H](NS(=O)(=O)c1ccc(-c2ccc(Cl)cc2)cc1)C(=O)O)OCc1ccccc1` [Example 2, L-N-(p-Chlorobiphenylsulfonyl)-aspartic acid-β-benzylester], the half-inhibitory concentration (IC50) on MMP-8 was 48.7 nM. In addition, the inhibition at 0.21 µM at MMP-9 was found to be 38%.

The values are drawn from EP0967201A1, “Pharmaceutical agents containing sulfonamids as matrix metalloproteinase inhibitors” (Roche Diagnostics GmbH, priority 1998, dated 1999).
